Reference: patent EP0754193B1, “HEPATITIS C VIRUS CORE PEPTIDE FOR STIMULATION OF CYTOTOXIC T LYMPHOCYTES AND DIAGNOSIS OF HCV EXPOSURE” (priority 1994, dated 1995)
Where no end group is shown, it is not given here.

Tested on: 18Neo (H-2^d; class I MHC^+, class II MHC^- neomycin-resistance gene-transfected 3T3 fibroblast)
Settings: in the absence of CTL

GFADLMGYIPLVGAPL [Peptide C7]
direct toxicity to the cells: not directly toxic
